Assays:
Plasma stability = format: in vitro ADME, human; conditions: after 1 h incubation
Source text: Drugs are exposed in plasma to enzymatic processes (proteinases, esterases), they can undergo intramolecular rearrangement or bind irreversibly (covalently) to proteins. Compounds which are not stable in plasma have inherent liability as drug candidates, as they are less capable to reach a sufficient concentration at their site of pharmacological activity.

rats (Wister, male) [1] = test: Tail-flick test; format: in vivo, rat
Method: (§1) Kyotorphin is an endogenous analgesic agent in the brain. However, Kyotorphin can not be used as an analgesic due to its inability to cross the blood-brain-barrier. […] In addition, KTP-NH2 efficacy after oral administration was also observed.
(§2) In vivo behavioural anti-nociception tests were carried out in rats (Wister, male). Unless otherwise stated, compounds were administered by intra-peritoneal (i.p.) injection. For most assays, the Tail Flick and the Hot Plate tests were used.
The tail-flick test (D'Amour F. E., Smith D. L. 1941. A method for determining the loss of pain sensation. J Pharmacol Exp Ther 1941; 72:74-79) is a standard investigative tool for pain and analgesia assessment in rodents. It is based on a spinal reflex response of the tail to radiant heat. Pain sensitivity in rats was measured as they responded to the application of radiant heat to a small area of their tails. […]
(§3) A KTP derivative was used for comparative purposes, as control. Both drugs were injected i.p. and p.o. and rats were analysed for the Hot Plate and Tail Flick tests.
Additionaly, the central action of KTP-NH2 was confirmed by experiments of naloxone-reversible analgesia. […] In order to corroborate the evidence that KTP-NH2 was exerting its analgesic effect via a central action, we analyzed the antinociceptive effect of KTP-NH2 after pretreatment with naloxone.

[2] = Plasma serum stability of KTP-NH2 analogues; format: in vitro ADME; conditions: Human Serum, test concentration 400 uM, 1-hour incubation
Method: In order to increase the potential of KTP-NH2 as a drug for systemic administration, derivatives with improved plasma stability were generated, and tested, including different isomers of KTP-NH2 and methylated versions of KTP-NH2 isomers: • L-Tyrosyl-D-Arginine-NH2 • D-Tyrosyl-D-Arginine-NH2 • D-Tyrosyl-L-Arginine-NH2 • Methyl-L-Tyrosyl-L-Arginine-NH2 • Methyl-L-Tyrosyl-D-Arginine-NH2
These analogues were tested for plasma serum stability, in comparison with KTP-NH2.

[3] = Differential quenching, depth of location in the membrane; format: physicochemical; conditions: phenolic ring, differential quenching with Brownian dynamics simulation
Source text: The x-axis indicates the distance to the bilayer center, being the monolayer thickness 20 Å and y-axis represents the values of the probability density function. Traces (4) and (5) relate to the location of the quenching agents used in the study.
Differential quenching experiments were used to estimate the depth of location of the phenolic ring of the peptides, based on a Brownian dynamics simulation (Fernandes M. X., García de la Torre J., Castanho M. A. 2002. Joint determination by Brownian dynamics and fluorescence quenching of the in-depth location profile of biomolecules in membranes. Anal. Biochem. 307: 1-12.) This methodology allows to determine where the molecules are preferably inserted along the lipid bilayer. The peptides with the amide group show a greater depth of insertion, 4 Å—KTP-NH2, from the lipid/water interface. This is in agreement with KTP-NH2 having a higher affinity for lipids, as desired.

CYP3A4 = CYP3A4 (Homo sapiens, UniProt P08684); test: CYP inhibition; format: in vitro ADME; conditions: probe substrates midazolan and testosterone
Sequence of CYP3A4 (P08684 whole entry): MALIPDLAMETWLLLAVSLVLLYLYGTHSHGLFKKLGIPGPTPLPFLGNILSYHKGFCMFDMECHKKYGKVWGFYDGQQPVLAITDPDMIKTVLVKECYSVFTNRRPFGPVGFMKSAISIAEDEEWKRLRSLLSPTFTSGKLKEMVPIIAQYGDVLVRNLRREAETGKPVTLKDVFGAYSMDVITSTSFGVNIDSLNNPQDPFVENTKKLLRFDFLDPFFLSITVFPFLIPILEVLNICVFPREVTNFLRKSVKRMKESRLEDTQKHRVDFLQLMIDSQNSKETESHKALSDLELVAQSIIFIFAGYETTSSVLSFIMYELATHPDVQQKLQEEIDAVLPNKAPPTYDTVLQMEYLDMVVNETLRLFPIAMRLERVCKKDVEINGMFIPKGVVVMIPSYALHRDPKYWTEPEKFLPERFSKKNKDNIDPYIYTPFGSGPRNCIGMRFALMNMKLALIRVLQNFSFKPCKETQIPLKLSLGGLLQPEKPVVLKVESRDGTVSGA
Source text: CYP3A4 is one of the most important enzymes involved in the metabolism of xenobiotics in the body, promoting the oxidation of the largest range of substrates of all the CYPs and is present in the largest quantity of all the CYPs in the liver.

rats (Wister, male) [4] = test: Increasing-temperature hot-plate test; format: in vivo, rat; conditions: i.p. and p.o. administration
Method: as §1, §2
The hot-plate test (Eddy N. B and Leimbach D. 1953. Synthetic analgesics II. Dithienylbutenyl and dithienylbutylamines J. Pharmacol. Exp. Ther. 45: 339) evaluates a supraspinally integrated response in the form of thermal pain reflexes due to footpad contact with a heated surface. During the experiments, the animal is confined in a removable clear acrylic compartment where the latency time to the first hind paw or/and jumping responses are measured. […] The response is the licking of the hindpaw, and the corresponding plate temperature represents the recorded nociceptive end-point. […]
as §3

rats (Wister, male) [5] = test: In vivo toxicology: antioxidant capacity in blood samples; design: species or system rat; conditions: i.p. once a day 3.23 mg-100 g body mass, seven days
Method: (§4) The toxicological studies were carried out with rats (Wister, male) injected i.p. once a day with 3.23 mg-100 g body mass during seven days.
Metabolization of KTP-NH2 in the organism might lead to an increase in its metabolite products and to the subsequent production of reactive oxygen species (ROS). As increased ROS levels are potentially harmful.
KTP-NH2 potential to induce changes in antioxidant capacities in the plasma of animals was explored. Total antioxidant capacity of lipid-soluble (ACL) and water-soluble (ACW) constituents were determined.

[6] = Metabolic stability in human liver microsomal preparation; format: in vitro ADME; conditions: human liver microsomes, 1-hour incubation
Source text: Many compounds can never become a drug because they are rapidly metabolized in the liver. It is important to confirm that metabolic stability is adequate to the desired distribution of compound throughout the body.

rats (Wister, male) [7] = test: In vivo toxicology: hepatotoxicity markers in the plasma; design: species or system rat; conditions: i.p. once a day 3.23 mg-100 g body mass, seven days
Method: as §4
Liver is the major organ of toxicity. Blood samples were collected and the following hepatotoxicity markers were assayed in the plasma: • Alanine transaminase (ALT), • Aspartate transaminase (AST) • Alkaline phosphatase (ALP) • Total bilirubin (TBIL) • Gamma glutamyl transpeptidase (GGT)
Increased levels of the liver enzymes ALT, AST, ALP and GGT in the plasma indicate lesions in liver. Increased RBL would be a sign of faulty bilirubin production/hemolysis and/or bilirubin metabolism (in liver).

Q: For `N=C(N)NCCCC(NC(=O)C(N)Cc1ccc(O)cc1)C(N)=O` [KTP-NH2, L-Tyr-L-Arg-NH2], which “stability in human plasma” value (Plasma stability) is on record?
A: 14-21%

Q: And the “effect of naloxone pretreatment on analgesia” value (rats (Wister, male) [1]; naloxone 10 min before KTP-NH2, KTP-NH2 3 mg/100 g, naloxone 0.5 mg/100 g, tail-flick)?
A: completely antagonized the analgesia

Q: What about the “anti-nociceptive response, time to remove tail after stimulus (Tail Flick)” value (rats (Wister, male) [1]; rats, i.p. and p.o. administration) of the same compound?
A: clear anti-nociceptive response

Q: What about the “Mean Parent Remaining (%)” value [2] of the same compound?
A: 14.00%

Q: What about the “depth of insertion from the lipid/water interface” value [3] of the same compound?
A: 4 Å

Q: What about the CYP3A4 inhibition (CYP3A4) of the same compound?
A: not to inhibit

Q: What about the “anti-nociceptive response, temperature increase tolerated in the paw (Hot Plate)” value (rats (Wister, male) [4]) of the same compound?
A: clear anti-nociceptive response

Q: What about the “basal antioxidant capacity in plasma (water-soluble ACW and lipid-soluble ACL constituents)” value (rats (Wister, male) [5]) of the same compound?
A: does not induce significant modifications

Q: And the “compound remained after incubation with microsomal preparation” value [6]?
A: 93%

Q: What about the GGT in plasma (rats (Wister, male) [7]) of the same compound?
A: below the detection limit

Q: And the “hepatotoxicity markers in plasma (AST, ALT, ALP, total bilirubin) versus control animals” value (rats (Wister, male) [7])?
A: no toxic effects were detected

— patent US20110294741A1, “USE OF COMPOUNDS IN THE TREATMENT OF TAU-INDUCED CYTOTOXICITIES” (Bioalvo-Servicos, Investigacao e Desenvolvimento em …, priority 2008, published 2011)
